Source: patent publication US20110076686A1 (priority 2008, published 2011)

System: Legionella pneumophila
Assay type: cell-based
Settings: DVC step

| Structure (SMILES) | effectiveness as DNA gyrase inhibitor / cellular proliferation inhibitor | elongation of Legionella pneumophila cells and blocking of division |
| --- | --- | --- |
| CC1=C(C(=O)O)N2C(=O)[C@@H](NC(=O)[C@H](N)c3ccccc3)[C@H]2SC1 [cephalexin] | very effective DNA gyrase inhibitors | allow the Legionella pneumophila cells to elongate in preparation for cell division but actually block these elongated cells from dividing |
| O=C(O)c1cn(C2CC2)c2cc(N3CCNCC3)c(F)cc2c1=O [ciprofloxacin, Ciprofloxacin] | very effective DNA gyrase inhibitors | allow the Legionella pneumophila cells to elongate in preparation for cell division but actually block these elongated cells from dividing |
| CCn1cc(C(=O)O)c(=O)c2ccc(C)nc21 [nalidixic acid] | not a reliably effective DNA gyrase inhibitor | does not provide sufficient elongation |
